“Also recorded” adds a separate entry of the source. Like-named read-outs stand apart in the source and are kept apart here.
Assays:
[1] = test system: adult male and female schistosome pairs; experiment: In vitro adult schistosome screening (WHO/TDR motility, egg counts); type: cell-based, Schistosoma mansoni; details: for EC50: Schistosoma mansoni, 72 h
Method: In vitro screening was replicated three times on different dates to account for any biological variation. Briefly three adult worm pairs/well (48-well tissue culture plate format) were placed into DMEM (Gibco, Paisley, UK) supplemented with 10% (v/v) FCS (Gibco, Paisley, UK), 1% (v/v) L-glutamine (Gibco, Paisley, UK) and an antibiotic mixture (150 Units/ml penicillin and 150 μg/ml streptomycin; Gibco, UK). DMSO (0.5% negative control), AUR (10 μM concentration in 0.5% DMSO; positive control) and two-fold titrations of SGC compounds (50 μM– 6.25 μM or 50 μM– 0.05 μM; in 0.5% DMSO max) were added, and together, these adult worm/compound co-cultures were incubated at 37°C for 72 h in a humidified atmosphere containing 5% CO2. Following compound incubation, WHO/TDR readouts of adult worm motility, abundance of H3K36me2 (LLY-507 and BAY-598 treated worms only) in histone extracts and egg counts/well were recorded at 72 h.

[2] = HepG2 cell cytotoxicity, MTT assay; type: cell-based, Human; details: human, read-out: CC50 (HepG2) (95% Confidence Intervals)
Method: Human Hepatocyte Carcinoma (HepG2) cells (Sigma Aldrich, UK) were utilized to assess SGC epigenetic probe cell cytotoxicity in the application of the MTT (3-(4,5-dimethylthiazol-2-yl)-2,5-diphenyltetrazolium bromide) assay. Briefly, cells were passaged at 70–80% confluence and seeded (20,000 cells/ 50 μL per well) in a 96-well, black-sided, clear-bottomed falcon plate (Fisher Scientific, UK) with the final plate column (8 wells) being treated as a blank (media only). Following a 24 h incubation (5% CO2, 37°C, humidified), HepG2 cells were then treated with 50 μL of pre-warmed media (37°C) containing SGC EPs/EIs at 200 μM to 0.02 μM (final concentration 100 μM, 10 μM, 1 μM, 0.1 μM and 0.01 μM). Three positive (1% Triton X-100) and negative (1% DMSO) control wells per plate were additionally included.
After addition of compounds, each plate was then incubated for a further 20 h before application of MTT for assessment of overt compound cytotoxicity using the MTT assay. The MTT assay was read using the POLARstar Omega (BMG LabTech, UK) plate reader at an absorbance of 570 nm. CC50s were calculated in GraphPad Prism.

S. mansoni schistosomula = experiment: In vitro schistosomula screening (Roboworm platform), phenotype and motility; type: cell-based, Schistosoma mansoni; details: for EC50: Schistosoma mansoni; for hit / activity against schistosomula, single-point screen: hit cut-offs phenotype -0.15, motility -0.35
Method: Briefly, 384-well tissue culture plates (Perkin Elmer, cat 6007460), containing 20 μl of Basch medium, were wet-stamped using a Biomek NX^P liquid handling platform (Beckman Coulter, UK) with negative (0.625% dimethyl sulfoxide, DMSO) and positive controls (AUR and PZQ at 10 μM final concentration in 0.625% DMSO) as well as 37 SGC compounds (at 10 μM final concentration in 0.625% DMSO). […] To each pre-loaded well (single concentration or titration screens), a total of 100–120 mechanically transformed schistosomula (in 60 μl) were deposited via a WellMate (Thermo Scientific, UK). Schistosomula/compound co-cultures (80 μl in total) were then incubated at 37°C for 72 h in a humidified atmosphere containing 5% CO2. At 72 h, tissue culture plates (containing schistosomula/compound co-cultures) were imaged under the same conditions (37°C in a humidified atmosphere containing 5% CO2) using an ImageXpressXL high content imager (Molecular Devices, UK) with subsequent images processed for phenotype and motility as previously reported and successfully implemented by us at Aberystwyth University. Single point schistosomula screens (10 μM) were repeated two or three times whereas dose response titrations were performed once. Zˊ values obtained from all schistosomula screens ranged from 0.27–0.48 (mean = 0.40) for phenotype and 0.41–0.56 (mean = 0.48) for motility.

[3] = motility, adult females, read-out: ADULT EC50 (95% Confidence Intervals) Females
[4] = motility, adult males, read-out: ADULT EC50 (95% Confidence Intervals) Males
[5] = CC50 HepG2 / schistosomula motility EC50
[6] = CC50 HepG2 / schistosomula phenotype EC50
[7] = 72 h, two-fold titration 10 μM–0.625 μM, single replicate, approximate, read-out: SCHISTOSOMULA EC50 Motility
[8] = 72 h, two-fold titration 10 μM–0.625 μM, single replicate, approximate, read-out: SCHISTOSOMULA EC50 Phenotype
[9] = read-out: ADULT EC50 (95% Confidence Intervals) Females
[10] = read-out: ADULT EC50 (95% Confidence Intervals) Males
[11] = 72 h, read-out: SCHISTOSOMULA EC50 Motility
[12] = 72 h, read-out: SCHISTOSOMULA EC50 Phenotype

SMILES	SELECTIVITY INDEX Adult Females ([1]; CC50 HepG2 / adult female EC50)	SELECTIVITY INDEX Adult Males ([1]; CC50 HepG2 / adult male EC50)	EC50 [1, 3]	EC50 [1, 4]	CC50 at 20 h ([2]; HepG2 cells)	SELECTIVITY INDEX Schistosomula Motility (S. mansoni schistosomula; [5])	SELECTIVITY INDEX Schistosomula Phenotype (S. mansoni schistosomula; [6])	EC50 (S. mansoni schistosomula; [7])	EC50 (S. mansoni schistosomula; [8])	hit / activity against schistosomula, single-point screen (S. mansoni schistosomula; 10 μM, 72 h)	also measured
Clc1cc2c(NC3CCCC3)nnc(-c3ccncc3)c2cc1Cl [A-196, 8,9-dichloro-N-cyclopentyl-5-(pyridin-4-yl)-3,4-diaza-bicyclo[4.4.0]deca-1(10),2,4,6,8-pentaen-2-amine]	3.13	2.24	16 µM	22.3 µM	> 50 µM	10.45	36.00	4.78 µM	1.39 µM	–	–
CCN(C(=O)CO)C1CN(C(=Nc2cccc(OC(F)F)c2)NC#N)N=C1c1ccccc1 (stereo not drawn) [BAY-369]	–	–	–	–	–	–	–	–	–	None of these chemotype controls demonstrated anti-schistosomula activity; also recorded: is not	–
CC(=O)Nc1ccc(C(=O)Nc2ccccc2N)cc1 [CI-994]	–	–	–	–	–	–	–	–	–	non-hit	–
CCOC(=O)CCNc1cc(N2CCc3ccccc3CC2)nc(-c2cccnc2)n1 [GSKJ5]	–	–	–	–	–	–	–	–	–	None of these chemotype controls demonstrated anti-schistosomula activity	–
CCn1cc(-c2cccc(C(F)(F)F)c2)c2sc(C(=N)NC3CCS(=O)(=O)CC3)cc2c1=O [I-BRD9, N-(1,1-dioxidotetrahydro-2H-thiopyran-4-yl)-5-ethyl-4-oxo-7-(3-(trifluoromethyl)phenyl)-4,5-dihydrothieno[3,2-c]pyridine-2-carboximidamide]	1.31	1.10	24 µM	28.5 µM	31.4 µM	7.61	24.44	4.13 µM	1.29 µM	–	–
CCC(=O)N1CCOc2c(cc(-c3ccc(OC)c(OC)c3)cc2OC[C@H]2CCCN(C)C2)C1 [I-CBP112, 1-[7-(3,4-dimethoxyphenyl)-9-{[(3S)-1-methylpiperidin-3-yl]methoxy}-2,3,4,5-tetrahydro-1,4-benzoxazepin-4-yl]propan-1-one]	–	–	–	–	–	–	–	–	–	did not	–
Cc1sc2c(c1C)C(c1ccc(Cl)cc1)=N[C@@H](CC(=O)OC(C)(C)C)c1nnc(C)n1-2 [JQ1, [(S)-4-(4-Chloro-phenyl)-2,3,9-trimethyl-6H-1-thia-5,7,8,9a-tetraaza-cyclopenta[e]azulen-6-yl]-acetic acid tert-butyl este]	0.73	0.92	–	–	–	5.53	3.56	–	–	–	EC50 [1, 9]: 22.8 µM; EC50 [1, 10]: 18.3 µM; CC50 at 20 h [2]: 16.8 µM; EC50 (S. mansoni schistosomula; [11]): 3.04 µM; EC50 (S. mansoni schistosomula; [12]): 4.72 µM
O=C(/C=C/c1ccc(CN(CCO)CCc2c[nH]c3ccccc23)cc1)NO [LAQ824]	0.95	0.63	16.5 µM	25 µM	15.6 µM	6.40	7.04	2.45 µM	2.22 µM	hit	–
CC(C)Oc1ccc(-c2c[nH]cc2CN(C)CCN)cc1 [MS023, 3-(((2-amino-ethyl)-methyl-amino)-methyl)-4-(4-(1-methyl-ethoxy)-phenyl)-1H-pyrrole]	0.62	0.62	26.3 µM	26.2 µM	16.2 µM	2.52	4.14	6.45 µM	3.92 µM	–	–
CCCS(=O)(=O)c1nc(NC2CC2)cc(-c2ccc3c(ccn3C3CC(C)(C)NC(C)(C)C3)c2)n1 [NVS-CECR2-1, N-cyclopropyl-2-propylsulfonyl-6-[1-(2,2,6,6-tetramethylpiperidin-4-yl)indol-5-yl]pyrimidin-4-amine]	1.73	3.11	–	–	–	3.60	4.98	–	–	–	EC50 [1, 9]: 5.21 µM; EC50 [1, 10]: 2.9 µM; CC50 at 20 h [2]: 9.03 µM; schistosomula phenotype by microscopic assessment (S. mansoni schistosomula; 10 μM, 72 h): phenotypes comparable to auranofin; EC50 (S. mansoni schistosomula; [11]): 2.5 µM; EC50 (S. mansoni schistosomula; [12]): 1.81 µM
COc1ccc(CCc2nc3cc(-c4c(C)noc4C)ccc3n2CC(C)N2CCOCC2)cc1Cl (stereo not drawn) [SGC-CBP30, 8-(3-chloro-4-methoxy-phenethyl)-4-(3,5-dimethyl-isoxazol-4-yl)-9-(2-(morpholin-4-yl)-propyl)-7,9-diaza-bicyclo[4.3.0]nona-1(6),2,4,7-tetraene]	–	–	31.2 µM	33.5 µM	> 50 µM	–	–	4.99 µM	3.19 µM	demonstrated activity against schistosomula	S[…] Adult Females ([1]; CC50 HepG2 / adult female EC50): 1.6; S[…] Adult Males ([1]; CC50 HepG2 / adult male EC50): 1.49; S[…] Schistosomula Motility (S. mansoni schistosomula; [5]): 10.03; S[…] Schistosomula Phenotype (S. mansoni schistosomula; [6]): 15.69
CCCc1cc(C)[nH]c(=O)c1CNC(=O)c1cc(-c2ccc(N3CCN(C(C)C)CC3)nc2)cc2c1cnn2C(C)C [UNC1999, N-[(6-methyl-2-oxo-4-propyl-1,2-dihydropyridin-3-yl)methyl]-1-(propan-2-yl)-6-{6-[4-(propan-2-yl)piperazin-1-yl]pyridin-3-yl}-1H-indazole-4-carboxamide]	1.95	2.32	16.1 µM	13.5 µM	31.4 µM	11.16	7.48	2.82 µM	4.2 µM	are hits against schistosomula	–
CCCc1cc(C)n(C)c(=O)c1CN(C)C(=O)c1cc(-c2ccc(N3CCN(C(C)C)CC3)nc2)cc2c1cnn2C(C)C [UNC2400]	–	–	–	–	–	–	–	–	–	None of these chemotype controls demonstrated anti-schistosomula activity	–
